Experimental data as given in US20220119354A1, “DIAMINO-SUBSTITUTED PYRIDINES AND PYRIMIDINES AS HERBICIDES” (FMC Corporation, priority 2019, published 2022).

Key:
Assay type in all cases: in vivo
[1] = system: foxtail, giant (Setaria faberii); test: Test A postemergence, giant foxtail; details: 0 to 100 scale
Procedure, shortened: (§1)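 Ratings reflect visual comparison with untreated controls roughly 10 d after greenhouse application, 0 meaning no effect and 100 complete control. Treatment was by directed soil spray at planting or by spray onto one- to two-leaf plants in loam/sand pots.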

[2] = system: ryegrass, Italian (Lolium multiflorum); test: Test A preemergence, Italian ryegrass; details: 0 to 100 scale
Procedure, shortened: as §1

[3] = system: kochia (Kochia scoparia); test: Test A postemergence, kochia; details: 0 to 100 scale
Procedure, shortened: as §1

[4] = system: galium (catchweed bedstraw, Galium aparine); test: Test A postemergence, galium; details: 0 to 100 scale
Procedure, shortened: as §1

[5] = system: pigweed (Amaranthus retroflexus); test: Test A preemergence, pigweed; details: 0 to 100 scale
Procedure, shortened: as §1

[6] = system: barnyardgrass (Echinochloa crus-galli); test: Test B flooded paddy test, barnyardgrass; details: Flood, 250 g ai/ha, applied to paddy water, 2-leaf stage, visual evaluation after 13 to 15 d
Procedure, shortened: (§2)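 Rating: 0 = no effect, 100 = complete control, visual, relative to untreated plants. Conditions: 2-leaf stage, 3 cm flood kept constant, compound put directly into water, 13–15 d greenhouse.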

[7] = system: ragweed (common ragweed, Ambrosia elatior); test: Test A postemergence, ragweed; details: 0 to 100 scale
Procedure, shortened: as §1

[8] = system: ragweed (common ragweed, Ambrosia elatior); test: Test A preemergence, ragweed; details: 0 to 100 scale
Procedure, shortened: as §1

[9] = system: kochia (Kochia scoparia); test: Test A preemergence, kochia; details: 0 to 100 scale
Procedure, shortened: as §1

[10] = system: sedge, umbrella (small-flower umbrella sedge, Cyperus difformis); test: Test B flooded paddy test, umbrella sedge; details: Flood, 250 g ai/ha, applied to paddy water, 2-leaf stage, visual evaluation after 13 to 15 d
Procedure, shortened: as §2

[11] = system: foxtail, giant (Setaria faberii); test: Test A preemergence, giant foxtail; details: 0 to 100 scale
Procedure, shortened: as §1

[12] = system: rice (Oryza sativa); test: Test B flooded paddy test, rice; details: Flood, 250 g ai/ha, applied to paddy water, 2-leaf stage, visual evaluation after 13 to 15 d
Procedure, shortened: as §2

[13] = system: ryegrass, Italian (Lolium multiflorum); test: Test A postemergence, Italian ryegrass; details: 0 to 100 scale
Procedure, shortened: as §1

[14] = system: pigweed (Amaranthus retroflexus); test: Test A postemergence, pigweed; details: 0 to 100 scale
Procedure, shortened: as §1

[15] = system: blackgrass (Alopecurus myosuroides); test: Test A postemergence, blackgrass; details: 0 to 100 scale
Procedure, shortened: as §1

[16] = system: wheat (Triticum aestivum); test: Test A postemergence, wheat; details: 0 to 100 scale
Procedure, shortened: as §1

[17] = system: ducksalad (Heteranthera limosa); test: Test B flooded paddy test, ducksalad; details: Flood, 250 g ai/ha, applied to paddy water, 2-leaf stage, visual evaluation after 13 to 15 d
Procedure, shortened: as §2

[18] = system: corn (Zea mays); test: Test A postemergence, corn; details: 0 to 100 scale
Procedure, shortened: as §1

[19] = system: barnyardgrass (Echinochloa crus-galli); test: Test A preemergence, barnyardgrass; details: 0 to 100 scale
Procedure, shortened: as §1

[20] = system: barnyardgrass (Echinochloa crus-galli); test: Test A postemergence, barnyardgrass; details: 0 to 100 scale
Procedure, shortened: as §1

SMILES: Cc1cc(C)cc(OC[C@@H](C)Nc2ncc(C(F)(F)F)c(N)n2)c1 [Compound 25, N2-[(1R)-2-(3,5-dimethylphenoxy)-1-methylethyl]-5-(trifluoromethyl)-2,4-pyrimidinediamine]
- pest or weed control at 125 g/ha ([1]; Setaria faberi, post-emergence, 240 h, 125 g ai/ha, read-out: Plant response rating, Foxtail, Giant): 10%
- pest or weed control at 500 g/ha ([1]; Setaria faberi, post-emergence, 240 h, 500 g ai/ha, read-out: Plant response rating, Foxtail, Giant): 80%
- Plant response rating, Ryegrass, Italian ([2]; 125 g ai/ha): 20
- Plant response rating, Ryegrass, Italian ([2]; 500 g ai/ha): 70
- pest or weed control at 125 g/ha ([3]; Bassia scoparia, post-emergence, 240 h, 125 g ai/ha, read-out: Plant response rating, Kochia): 60%
- pest or weed control at 500 g/ha ([3]; Bassia scoparia, post-emergence, 240 h, 500 g ai/ha, read-out: Plant response rating, Kochia): 80%
- pest or weed control at 125 g/ha ([4]; Galium, post-emergence, 240 h, 125 g ai/ha, read-out: Plant response rating, Galium): 80%
- pest or weed control at 500 g/ha ([4]; Galium, post-emergence, 240 h, 500 g ai/ha, read-out: Plant response rating, Galium): 90%
- Plant response rating, Pigweed ([5]; 125 g ai/ha): 60
- Plant response rating, Pigweed ([5]; 500 g ai/ha): 100
- pest or weed control at 250 g/ha ([6]; Echinochloa crus-galli, 360 h, read-out: Plant response rating, Barnyardgrass (0 to 100 scale, 0 is no effect, 100 is complete control)): 0%
- pest or weed control at 125 g/ha ([7]; Ambrosia artemisiifolia, post-emergence, 240 h, 125 g ai/ha, read-out: Plant response rating, Ragweed): 60%
- pest or weed control at 500 g/ha ([7]; Ambrosia artemisiifolia, post-emergence, 240 h, 500 g ai/ha, read-out: Plant response rating, Ragweed): 90%
- Plant response rating, Ragweed ([8]; 125 g ai/ha): 80
- Plant response rating, Ragweed ([8]; 500 g ai/ha): 100
- Plant response rating, Kochia ([9]; 125 g ai/ha): 20
- Plant response rating, Kochia ([9]; 500 g ai/ha): 90
- pest or weed control at 250 g/ha ([10]; Cyperus difformis, 360 h, read-out: Plant response rating, Sedge, Umbrella (0 to 100 scale, 0 is no effect, 100 is complete control)): 100%
- Plant response rating, Foxtail, Giant ([11]; 125 g ai/ha): 50
- Plant response rating, Foxtail, Giant ([11]; 500 g ai/ha): 100
- plant injury at 250 g/ha ([12]; Oryza sativa, 360 h, read-out: Plant response rating, Rice (0 to 100 scale, 0 is no effect, 100 is complete control)): 0%
- pest or weed control at 125 g/ha ([13]; Lolium multiflorum, post-emergence, 240 h, 125 g ai/ha, read-out: Plant response rating, Ryegrass, Italian): 0%
- pest or weed control at 500 g/ha ([13]; Lolium multiflorum, post-emergence, 240 h, 500 g ai/ha, read-out: Plant response rating, Ryegrass, Italian): 20%
- pest or weed control at 125 g/ha ([14]; Amaranthus retroflexus, post-emergence, 240 h, 125 g ai/ha, read-out: Plant response rating, Pigweed): 70%
- pest or weed control at 500 g/ha ([14]; Amaranthus retroflexus, post-emergence, 240 h, 500 g ai/ha, read-out: Plant response rating, Pigweed): 90%
- pest or weed control at 125 g/ha ([15]; Alopecurus myosuroides, post-emergence, 240 h, 125 g ai/ha, read-out: Plant response rating, Blackgrass): 0%
- pest or weed control at 500 g/ha ([15]; Alopecurus myosuroides, post-emergence, 240 h, 500 g ai/ha, read-out: Plant response rating, Blackgrass): 70%
- plant injury at 125 g/ha ([16]; Triticum aestivum, post-emergence, 240 h, 125 g ai/ha, read-out: Plant response rating, Wheat): 0%
- plant injury at 500 g/ha ([16]; Triticum aestivum, post-emergence, 240 h, 500 g ai/ha, read-out: Plant response rating, Wheat): 30%
- pest or weed control at 250 g/ha ([17]; Heteranthera limosa, 360 h, read-out: Plant response rating, Ducksalad (0 to 100 scale, 0 is no effect, 100 is complete control)): 0%
- Corn plant response rating (crop injury, 0 = no effect, 100 = complete kill) at 125 g/ha ([18]; Zea mays, post-emergence, 240 h, 125 g ai/ha): 20%
- Corn plant response rating (crop injury, 0 = no effect, 100 = complete kill) at 500 g/ha ([18]; Zea mays, post-emergence, 240 h, 500 g ai/ha): 60%
- Plant response rating, Barnyardgrass ([19]; 125 g ai/ha): 90
- Plant response rating, Barnyardgrass ([19]; 500 g ai/ha): 100
- pest or weed control at 125 g/ha ([20]; Echinochloa crus-galli, post-emergence, 240 h, 125 g ai/ha, read-out: Plant response rating, Barnyardgrass): 50%
- pest or weed control at 500 g/ha ([20]; Echinochloa crus-galli, post-emergence, 240 h, 500 g ai/ha, read-out: Plant response rating, Barnyardgrass): 90%

SMILES: C[C@H](COc1ccccc1)Nc1ncc(C(F)(F)F)c(N)n1 [Compound 26]
- Plant response rating, Foxtail, Giant ([1]; 1000 g ai/ha): 0
- Plant response rating, Ryegrass, Italian ([2]; 1000 g ai/ha): 20
- Plant response rating, Kochia ([3]; 1000 g ai/ha): 30
- Plant response rating, Galium ([4]; 1000 g ai/ha): 60
- Plant response rating, Pigweed ([5]; 1000 g ai/ha): 80
- Plant response rating, Barnyardgrass (0 to 100 scale, 0 is no effect, 100 is complete control) [6]: 0
- Plant response rating, Ragweed ([7]; 1000 g ai/ha): 30
- Plant response rating, Ragweed ([8]; 1000 g ai/ha): 100
- Plant response rating, Kochia ([9]; 1000 g ai/ha): 0
- Plant response rating, Sedge, Umbrella (0 to 100 scale, 0 is no effect, 100 is complete control) [10]: 0
- Plant response rating, Foxtail, Giant ([11]; 1000 g ai/ha): 50
- Plant response rating, Rice (0 to 100 scale, 0 is no effect, 100 is complete control) [12]: 0
- Plant response rating, Ryegrass, Italian ([13]; 1000 g ai/ha): 10
- Plant response rating, Pigweed ([14]; 1000 g ai/ha): 50
- Plant response rating, Blackgrass ([15]; 1000 g ai/ha): 0
- Plant response rating, Wheat ([16]; 1000 g ai/ha): 0
- Plant response rating, Ducksalad (0 to 100 scale, 0 is no effect, 100 is complete control) [17]: 0
- Plant response rating, Corn ([18]; 1000 g ai/ha): 10
- Plant response rating, Barnyardgrass ([19]; 1000 g ai/ha): 10
- Plant response rating, Barnyardgrass ([20]; 1000 g ai/ha, 0 no effect, 100 complete control): 0

SMILES: CC[C@H](COc1cc(C)cc(C)c1)Nc1ncc(C(F)(F)F)c(N)n1 [Compound 27]
- Plant response rating, Foxtail, Giant ([1]; 125 g ai/ha): 0
- Plant response rating, Foxtail, Giant ([1]; 500 g ai/ha): 20
- Plant response rating, Ryegrass, Italian ([2]; 125 g ai/ha): 30
- Plant response rating, Ryegrass, Italian ([2]; 500 g ai/ha): 80
- Plant response rating, Kochia ([3]; 125 g ai/ha): 0
- Plant response rating, Kochia ([3]; 500 g ai/ha): 70
- Plant response rating, Galium ([4]; 125 g ai/ha): 90
- Plant response rating, Galium ([4]; 500 g ai/ha): 90
- Plant response rating, Pigweed ([5]; 125 g ai/ha): 10
- Plant response rating, Pigweed ([5]; 500 g ai/ha): 80
- Plant response rating, Barnyardgrass (0 to 100 scale, 0 is no effect, 100 is complete control) [6]: 0
- Plant response rating, Ragweed ([7]; 125 g ai/ha): 20
- Plant response rating, Ragweed ([7]; 500 g ai/ha): 90
- Plant response rating, Ragweed ([8]; 125 g ai/ha): 70
- Plant response rating, Ragweed ([8]; 500 g ai/ha): 90
- Plant response rating, Kochia ([9]; 125 g ai/ha): 0
- Plant response rating, Kochia ([9]; 500 g ai/ha): 40
- Plant response rating, Sedge, Umbrella (0 to 100 scale, 0 is no effect, 100 is complete control) [10]: 50
- Plant response rating, Foxtail, Giant ([11]; 125 g ai/ha): 20
- Plant response rating, Foxtail, Giant ([11]; 500 g ai/ha): 90
- Plant response rating, Rice (0 to 100 scale, 0 is no effect, 100 is complete control) [12]: 0
- Plant response rating, Ryegrass, Italian ([13]; 125 g ai/ha): 0
- Plant response rating, Ryegrass, Italian ([13]; 500 g ai/ha): 0
- Plant response rating, Pigweed ([14]; 125 g ai/ha): 60
- Plant response rating, Pigweed ([14]; 500 g ai/ha): 90
- Plant response rating, Blackgrass ([15]; 125 g ai/ha): 10
- Plant response rating, Blackgrass ([15]; 500 g ai/ha): 50
- Plant response rating, Wheat ([16]; 125 g ai/ha): 0
- Plant response rating, Wheat ([16]; 500 g ai/ha): 20
- Plant response rating, Ducksalad (0 to 100 scale, 0 is no effect, 100 is complete control) [17]: 0
- Plant response rating, Corn ([18]; 125 g ai/ha): 0
- Plant response rating, Corn ([18]; 500 g ai/ha): 20
- Plant response rating, Barnyardgrass ([19]; 125 g ai/ha): 10
- Plant response rating, Barnyardgrass ([19]; 500 g ai/ha): 90
- Plant response rating, Barnyardgrass ([20]; 125 g ai/ha): 0
- Plant response rating, Barnyardgrass ([20]; 500 g ai/ha): 20
